Reference: publication PMC5218480 (PLoS ONE, 2017)

Tested on: MV-4-11 cells
Assay: Gene expression microarray analysis (Affymetrix PrimeView) and GSEA
Assay type: cell-based, human
Design: RFU PODN (11730768_x_at) / Fold change /veh PODN (11730768_x_at) / RFU LINC00158 (11744669_a_at) / Fold change /veh LINC00158 (11744669_a_at) / RFU DUSP10 (11751237_a_at) / Fold change /veh DUSP10 (11751237_a_at) / RFU ID3 (11757404_x_at) / Fold change /veh ID3 (11757404_x_at) / RFU PLEKHG5 (11737974_s_at) / Fold change /veh PLEKHG5 (11737974_s_at) / RFU LRRC4B (11730491_at) / Fold change /veh LRRC4B (11730491_at) / RFU GIMAP4 (11747438_a_at) / Fold change /veh GIMAP4 (11747438_a_at) / RFU KRT8 (11758183_x_at) / Fold change /veh KRT8 (11758183_x_at) / RFU CNN1 (11734310_a_at) / Fold change /veh CNN1 (11734310_a_at) / RFU VPS37D (11726825_at) / Fold change /veh VPS37D (11726825_at) / RFU C10orf10 (11716522_x_at) / Fold change /veh C10orf10 (11716522_x_at) / RFU KIR2DL2 /// KIR2DL4 /// KIR2DL5A /// KIR2DL5B /// KIR2DS1 /// KIR2DS2 /// KIR2DS3 /// KIR2DS4 /// KIR3DL3 /// KIR3DL3 /// KIR3DS1 (11738374_at) / Fold change /veh KIR2DL2 /// KIR2DL4 /// KIR2DL5A /// KIR2DL5B /// KIR2DS1 /// KIR2DS2 /// KIR2DS3 /// KIR2DS4 /// KIR3DL3 /// KIR3DL3 /// KIR3DS1 (11738374_at) / RFU C1QL1 (11718748_at) / Fold change /veh C1QL1 (11718748_at) / RFU TMPRSS4 (11747572_a_at) / Fold change /veh TMPRSS4 (11747572_a_at) / RFU HAMP (11756126_x_at) / Fold change /veh HAMP (11756126_x_at) / RFU RNFT2 (11725882_a_at) / Fold change /veh RNFT2 (11725882_a_at) / RFU NR4A2 (11747474_a_at) / Fold change /veh NR4A2 (11747474_a_at) / RFU ABCC12 (11746883_a_at) / Fold change /veh ABCC12 (11746883_a_at) / RFU TMEM136 (11760407_x_at) / Fold change /veh TMEM136 (11760407_x_at) / RFU CLDN22 /// WWC2 (11732394_at) / Fold change /veh CLDN22 /// WWC2 (11732394_at) / RFU HLA-DPB1 (11760878_x_at) / Fold change /veh HLA-DPB1 (11760878_x_at) / RFU SPINT1 (11716480_a_at) / Fold change /veh SPINT1 (11716480_a_at) / RFU GAP43 (11754022_s_at) / Fold change /veh GAP43 (11754022_s_at) / RFU A4GNT (11735810_at) / Fold change /veh A4GNT (11735810_at) / RFU PRB3 (11715151_x_at) / Fold change /veh PRB3 (11715151_x_at) / RFU TUBB4B (11761932_at) / Fold change /veh TUBB4B (11761932_at) / RFU CAPN14 (11732068_a_at) / Fold change /veh CAPN14 (11732068_a_at) / RFU TMCC2 (11721928_a_at) / Fold change /veh TMCC2 (11721928_a_at) / RFU IRGQ (11745062_a_at) / Fold change /veh IRGQ (11745062_a_at) / RFU FAM174B (11720279_a_at) / Fold change /veh FAM174B (11720279_a_at) / RFU TMPRSS4 (11748680_a_at) / Fold change /veh TMPRSS4 (11748680_a_at) / RFU FAM212B (11763350_a_at) / Fold change /veh FAM212B (11763350_a_at) / RFU PLEKHG5 (11743358_a_at) / Fold change /veh PLEKHG5 (11743358_a_at) / RFU ZSCAN30 (11745921_a_at) / Fold change /veh ZSCAN30 (11745921_a_at) / RFU CMKLR1 (11741424_a_at) / Fold change /veh CMKLR1 (11741424_a_at) / RFU LOC101060620 /// MAPK8IP1 (11723275_at) / Fold change /veh LOC101060620 /// MAPK8IP1 (11723275_at) / RFU SPTSSB (11747773_x_at) / Fold change /veh SPTSSB (11747773_x_at) / RFU PRSS12 (11739890_at) / Fold change /veh PRSS12 (11739890_at) / RFU BIN1 (11741810_x_at) / Fold change /veh BIN1 (11741810_x_at) / RFU WNT11 (11732464_a_at) / Fold change /veh WNT11 (11732464_a_at) / RFU C10orf10 (11716521_a_at) / Fold change /veh C10orf10 (11716521_a_at) / RFU C5orf56 (11738089_at) / Fold change /veh C5orf56 (11738089_at) / RFU CYB561 (11721691_x_at) / Fold change /veh CYB561 (11721691_x_at) / RFU ANKRD19P (11752326_a_at) / Fold change /veh ANKRD19P (11752326_a_at) / RFU OR2T12 /// OR2T33 /// OR2T8 (11738714_s_at) / Fold change /veh OR2T12 /// OR2T33 /// OR2T8 (11738714_s_at) / RFU VCAN (11748164_a_at) / Fold change /veh VCAN (11748164_a_at) / RFU JSRP1 (11732532_at) / Fold change /veh JSRP1 (11732532_at) / RFU KRTAP10-11 (11738290_x_at) / Fold change /veh KRTAP10-11 (11738290_x_at) / RFU MYO3A (11730013_a_at) / Fold change /veh MYO3A (11730013_a_at) / RFU EBF3 (11725865_a_at) / Fold change /veh EBF3 (11725865_a_at) / RFU CAMK2N1 (11719241_x_at) / Fold change /veh CAMK2N1 (11719241_x_at) / RFU C5orf56 (11738088_a_at) / Fold change /veh C5orf56 (11738088_a_at) / RFU OLFML3 (11715873_a_at) / Fold change /veh OLFML3 (11715873_a_at) / RFU LOC100653217 /// NTM (11731650_a_at) / Fold change /veh LOC100653217 /// NTM (11731650_a_at) / RFU MAPK11 (11762145_a_at) / Fold change /veh MAPK11 (11762145_a_at) / RFU FIZ1 (11724087_x_at) / Fold change /veh FIZ1 (11724087_x_at) / RFU OASL (11726364_x_at) / Fold change /veh OASL (11726364_x_at) / RFU SOX15 (11748057_x_at) / Fold change /veh SOX15 (11748057_x_at) / RFU CD79A (11719716_a_at) / Fold change /veh CD79A (11719716_a_at) / RFU HIST1H1D (11736915_at) / Fold change /veh HIST1H1D (11736915_at) / RFU CASKIN2 (11723855_a_at) / Fold change /veh CASKIN2 (11723855_a_at) / RFU LOC730098 (11760151_x_at) / Fold change /veh LOC730098 (11760151_x_at) / RFU OR4N2 (11742367_at) / Fold change /veh OR4N2 (11742367_at) / RFU PRRT2 (11749266_a_at) / Fold change /veh PRRT2 (11749266_a_at) / RFU SNX32 (11753110_a_at) / Fold change /veh SNX32 (11753110_a_at) / RFU CDHR5 (11726645_a_at) / Fold change /veh CDHR5 (11726645_a_at) / RFU RCAN1 (11760418_a_at) / Fold change /veh RCAN1 (11760418_a_at) / RFU FAM167A (11723789_a_at) / Fold change /veh FAM167A (11723789_a_at) / RFU FAM26E (11764081_at) / Fold change /veh FAM26E (11764081_at) / RFU ISYNA1 (11749810_s_at) / Fold change /veh ISYNA1 (11749810_s_at) / RFU ACY1 (11761880_at) / Fold change /veh ACY1 (11761880_at) / RFU 11764098_at / Fold change /veh 11764098_at / RFU SAMD14 (11745864_x_at) / Fold change /veh SAMD14 (11745864_x_at) / RFU NPB (11741838_a_at) / Fold change /veh NPB (11741838_a_at) / RFU TMPRSS6 (11731388_a_at) / Fold change /veh TMPRSS6 (11731388_a_at) / RFU KRTAP10-2 (11738614_at) / Fold change /veh KRTAP10-2 (11738614_at) / RFU ARHGAP8 /// PRR5-ARHGAP8 (11727945_x_at) / Fold change /veh ARHGAP8 /// PRR5-ARHGAP8 (11727945_x_at) / RFU KRTAP5-7 /// NADSYN1 (11734609_at) / Fold change /veh KRTAP5-7 /// NADSYN1 (11734609_at) / RFU RASL12 (11751679_a_at) / Fold change /veh RASL12 (11751679_a_at) / RFU CDKN2B (11736163_a_at) / Fold change /veh CDKN2B (11736163_a_at) / RFU PRF1 (11729649_at) / Fold change /veh PRF1 (11729649_at) / RFU, ZNF638 /// ZNF638-IT1 / Fold change vs veh, ZNF638 /// ZNF638-IT1 / RFU, PANK3 / Fold change vs veh, PANK3 / RFU, SH3YL1 / Fold change vs veh, SH3YL1 / RFU, ZEB2 / Fold change vs veh, ZEB2 / RFU, NRIP1 / Fold change vs veh, NRIP1 / RFU, PTTG1IP / Fold change vs veh, PTTG1IP / RFU, CAPN2 / Fold change vs veh, CAPN2 / RFU, MED14 / Fold change vs veh, MED14 / RFU, SNORA58 / Fold change vs veh, SNORA58 / RFU, C1orf63 / Fold change vs veh, C1orf63 / RFU, LRRFIP1 / Fold change vs veh, LRRFIP1 / RFU, NDUFAF7 / Fold change vs veh, NDUFAF7 / RFU, SLC12A2 / Fold change vs veh, SLC12A2 / RFU, IBTK / Fold change vs veh, IBTK / RFU, ESF1 / Fold change vs veh, ESF1 / Fold change vs veh, TMEM50B / RFU, TAOK1 / Fold change vs veh, TAOK1 / RFU, ACBD3 / Fold change vs veh, ACBD3 / RFU, TMA16 / Fold change vs veh, TMA16 / RFU, RWDD3 / Fold change vs veh, RWDD3 / RFU, BCAT1 / Fold change vs veh, BCAT1 / RFU, EDEM3 / Fold change vs veh, EDEM3 / RFU, TMEM33 / Fold change vs veh, TMEM33 / RFU, WDR75 / Fold change vs veh, WDR75 / RFU, AHCTF1 / Fold change vs veh, AHCTF1 / RFU, TFRC / Fold change vs veh, TFRC / RFU, ZDHHC17 / Fold change vs veh, ZDHHC17 / RFU, NOM1 / Fold change vs veh, NOM1 / RFU, ARL8B / Fold change vs veh, ARL8B / RFU, ZBTB11 / Fold change vs veh, ZBTB11 / RFU, TAMM41 / Fold change vs veh, TAMM41 / RFU, KIAA1704 /// LOC100996395 / Fold change vs veh, KIAA1704 /// LOC100996395 / RFU, ING1 / Fold change vs veh, ING1 / RFU, TRMT61B / Fold change vs veh, TRMT61B / RFU, FUBP3 / Fold change vs veh, FUBP3 / RFU, TP53 / Fold change vs veh, TP53 / RFU, TNKS2 / Fold change vs veh, TNKS2 / RFU, ZFP14 / Fold change vs veh, ZFP14 / RFU, ACTR2 / Fold change vs veh, ACTR2 / RFU, PPP3R1 / Fold change vs veh, PPP3R1 / RFU, PIK3R1 / Fold change vs veh, PIK3R1 / RFU, HNRNPA1 / Fold change vs veh, HNRNPA1 / RFU, RNF170 / Fold change vs veh, RNF170 / RFU, ZNF28 / Fold change vs veh, ZNF28 / RFU, RNGTT / Fold change vs veh, RNGTT / RFU, OGT / Fold change vs veh, OGT / RFU, BRD1 / Fold change vs veh, BRD1 / RFU, MARS / Fold change vs veh, MARS / RFU, ZNF655 / Fold change vs veh, ZNF655 / RFU, FAHD1 / Fold change vs veh, FAHD1 / RFU, BDP1 / Fold change vs veh, BDP1 / RFU, LRRCC1 / Fold change vs veh, LRRCC1 / RFU, ARID1A / Fold change vs veh, ARID1A / RFU, ZNF146 / Fold change vs veh, ZNF146 / RFU, ZNF330 / Fold change vs veh, ZNF330 / RFU, GPN3 / Fold change vs veh, GPN3 / RFU, C9orf123 / Fold change vs veh, C9orf123 / RFU, N4BP2L2 / Fold change vs veh, N4BP2L2 / RFU, ARFIP1 / Fold change vs veh, ARFIP1 / RFU, FAM179B / Fold change vs veh, FAM179B / RFU, BCL10 / Fold change vs veh, BCL10 / RFU, UHRF1BP1L / Fold change vs veh, UHRF1BP1L / RFU, BET1 / Fold change vs veh, BET1 / RFU, CNOT2 / Fold change vs veh, CNOT2 / RFU, ZNF268 / Fold change vs veh, ZNF268 / Fold change vs veh, ZNF507 / RFU, DGCR2 / Fold change vs veh, DGCR2 / RFU, WDSUB1 / Fold change vs veh, WDSUB1 / Fold change vs veh, HSP90B1 /// MIR3652 / RFU, ADSS / Fold change vs veh, ADSS / RFU, GK / Fold change vs veh, GK / RFU, ZNF148 / Fold change vs veh, ZNF148 / RFU, TAF9 / Fold change vs veh, TAF9 / RFU, SLC1A5 / Fold change vs veh, SLC1A5 / RFU, SLMO2 / Fold change vs veh, SLMO2 / RFU, ABCC4 / Fold change vs veh, ABCC4 / RFU, LOC101060439 /// RAP1B / Fold change vs veh, LOC101060439 /// RAP1B / RFU, RFX7 / Fold change vs veh, RFX7 / RFU, GTPBP10 / Fold change vs veh, GTPBP10 / RFU, CNEP1R1 / Fold change vs veh, CNEP1R1 / RFU, BIVM-ERCC5 /// ERCC5 / Fold change vs veh, BIVM-ERCC5 /// ERCC5 / RFU, ILF3 / Fold change vs veh, ILF3 / RFU 11762660_at / Fold change /veh 11762660_at / RFU VCAN (11757783_s_at) / Fold change /veh VCAN (11757783_s_at) / RFU DDX43 (11728927_at) / Fold change /veh DDX43 (11728927_at) / RFU KRT8 (11758188_x_at) / Fold change /veh KRT8 (11758188_x_at) / RFU NKD1 (11759106_at) / Fold change /veh NKD1 (11759106_at) / RFU SRD5A1 (11742802_a_at) / Fold change /veh SRD5A1 (11742802_a_at) / RFU TPSAB1 /// TPSB2 (11721975_s_at) / Fold change /veh TPSAB1 /// TPSB2 (11721975_s_at) / RFU GSTM3 (11746129_a_at) / Fold change /veh GSTM3 (11746129_a_at) / RFU IL23R (11737362_x_at) / Fold change /veh IL23R (11737362_x_at) / RFU TMEM51 (11727254_a_at) / Fold change /veh TMEM51 (11727254_a_at) / RFU PIWIL2 (11732686_x_at) / Fold change /veh PIWIL2 (11732686_x_at) / RFU ORM1 (11744905_x_at) / Fold change /veh ORM1 (11744905_x_at) / RFU CCDC152 (11743942_at) / Fold change /veh CCDC152 (11743942_at) / RFU ECM1 (11717891_a_at) / Fold change /veh ECM1 (11717891_a_at) / RFU IL23R (11748794_a_at) / Fold change /veh IL23R (11748794_a_at) / RFU TNFAIP8L3 (11732012_x_at) / Fold change /veh TNFAIP8L3 (11732012_x_at) / RFU MBOAT4 (11741988_at) / Fold change /veh MBOAT4 (11741988_at) / RFU 11764193_at / Fold change /veh 11764193_at / RFU TMEM53 (11763286_at) / Fold change /veh TMEM53 (11763286_at) / RFU MAGEB2 (11727129_at) / Fold change /veh MAGEB2 (11727129_at) / RFU TMEM200A (11744735_a_at) / Fold change /veh TMEM200A (11744735_a_at) / RFU CCDC152 (11751479_a_at) / Fold change /veh CCDC152 (11751479_a_at) / RFU FAM211A (11726209_a_at) / Fold change /veh FAM211A (11726209_a_at) / RFU RGS16 (11746705_a_at) / Fold change /veh RGS16 (11746705_a_at) / RFU VCAN (11755009_s_at) / Fold change /veh VCAN (11755009_s_at) / RFU RHOB (11743442_s_at) / Fold change /veh RHOB (11743442_s_at) / RFU RGS16 (11720943_a_at) / Fold change /veh RGS16 (11720943_a_at) / RFU RGS16 (11720944_at) / Fold change /veh RGS16 (11720944_at) / RFU, VPS4B / Fold change vs veh, VPS4B / RFU, CREB1 / Fold change vs veh, CREB1 / RFU, DNAJC13 / Fold change vs veh, DNAJC13 / RFU, GNAQ / Fold change vs veh, GNAQ / RFU, CDK5R1 / Fold change vs veh, CDK5R1 / RFU, ZRANB3 / Fold change vs veh, ZRANB3 / RFU, CUL4A / Fold change vs veh, CUL4A / RFU, CCNY / Fold change vs veh, CCNY / RFU, UFL1 / Fold change vs veh, UFL1 / RFU, COG3 / Fold change vs veh, COG3 / RFU, DIAPH2 / Fold change vs veh, DIAPH2 / RFU, SKA2 / Fold change vs veh, SKA2 / RFU, AFF3 / Fold change vs veh, AFF3 / RFU, LMF1 / Fold change vs veh, LMF1 / RFU, IPO11 / Fold change vs veh, IPO11 / RFU, DFFB / Fold change vs veh, DFFB / RFU, FOXP1 / Fold change vs veh, FOXP1 / RFU, CARD8 / Fold change vs veh, CARD8 / RFU, STRN3 / Fold change vs veh, STRN3 / RFU, ADK / Fold change vs veh, ADK / RFU, RASSF2 / Fold change vs veh, RASSF2 / RFU, WIPF1 / Fold change vs veh, WIPF1 / RFU, LARP1B / Fold change vs veh, LARP1B / RFU, RASA1 / Fold change vs veh, RASA1 / RFU, RB1 / Fold change vs veh, RB1 / RFU, PPFIA1 / Fold change vs veh, PPFIA1 / RFU, MAT2A / Fold change vs veh, MAT2A / RFU, CCT5 / Fold change vs veh, CCT5 / RFU, WDR92 / Fold change vs veh, WDR92 / RFU, CUX1 / Fold change vs veh, CUX1 / RFU, TTC7A / Fold change vs veh, TTC7A / RFU, TMEM135 / Fold change vs veh, TMEM135 / RFU, DEPTOR / Fold change vs veh, DEPTOR / RFU, CPM / Fold change vs veh, CPM / RFU, DNAJB6 / Fold change vs veh, DNAJB6 / RFU, CACNA2D3 / Fold change vs veh, CACNA2D3 / RFU, DTX4 / Fold change vs veh, DTX4 / RFU, TFCP2 / Fold change vs veh, TFCP2 / RFU, GMCL1 /// GMCL1P1 / Fold change vs veh, GMCL1 /// GMCL1P1 / RFU, AEBP2 / Fold change vs veh, AEBP2 / RFU, SNHG1 /// SNORD22 /// SNORD25 /// SNORD26 /// SNORD27 /// SNORD28 /// SNORD29 /// SNORD31 / Fold change vs veh, SNHG1 /// SNORD22 /// SNORD25 /// SNORD26 /// SNORD27 /// SNORD28 /// SNORD29 /// SNORD31 / Fold change (Aza/veh), C12orf56 (ProbeSet 11735607_a_at) / Fold change (ACY-1035/veh), C12orf56 (ProbeSet 11735607_a_at) / Fold change (Aza/veh), FGFR1OP (ProbeSet 11751329_s_at) / Fold change (ACY-1035/veh), FGFR1OP (ProbeSet 11751329_s_at) / Fold change (Aza/veh), VPS36 (ProbeSet 11739960_a_at) / Fold change (ACY-1035/veh), VPS36 (ProbeSet 11739960_a_at) / RFU SYPL1 (11715823_x_at) / Fold change /veh SYPL1 (11715823_x_at) / RFU IGFBP7 (11715501_s_at) / Fold change /veh IGFBP7 (11715501_s_at) / RFU REEP3 (11722064_at) / Fold change /veh REEP3 (11722064_at) / RFU IGLL1 (11728026_x_at) / Fold change /veh IGLL1 (11728026_x_at): dose or concentration left out as unconfirmed
Conditions: MV-4-11 cells, 48 hours

Nc1ccc(-c2cccs2)cc1NC(=O)c1ccc2c(c1)cc(C1CC1)n2CCN1CCOCC1 [ACY-1035]
RFU C10orf10 (11716522_x_at): 43.57 RFU
